Data on 4 compounds can be found in patent US8222294B2, “Combinations of an anti emetic agent and an enkephalinase inhibitor” (Bioproject, priority 2004, dated 2012).

Molecules are shown by their SMILES. “Also recorded” adds a separate entry of the source. Where two headings read alike, the source gives them in different places.

Data set [1] has as its system castor oil-induced diarrhoea. Nature of the data set: castor oil-induced diarrhoea in rats. It counts as in vivo. As for the experimental part: The outstanding activity of the combinations of the invention was evidenced on an animal model of experimental diarrhoea. A combination of the invention was evaluated on the castor oil-induced diarrhoea in rats, according to Niemegeers et al. ([…]. (Drug Res), 1974, 24 No. 10). Rats received ondansetron (0.1 mg/kg, p.o.) and racecadotril (40 mg/kg, p.o.) administered together. […] As comparative examples, ondansetron and racecadotril were also administered alone at the same dosages.

In the next data set the test system is E. coli toxins. The conditions noted are these: cited from earlier work.
The test system of data set [2] is abdominal pain (abdominal cramps elicited by rectal distention). In words: abdominal cramps elicited by rectal distention in trinitrobenzenesulfonic acid-pretreated rats. It counts as in vivo. The settings on record: administered alone. The text has this:
The combinations of the invention involve a synergy against abdominal pain as the authors of the present invention have discovered using a classical model of abdominal pain in rodents (Morteau et al., Gastroenterology, 1993, 104, 47). Rats were […] trinitrobenzenesulfonic acid to induce intestinal inflammation and pain sensitivity, as assessed by evaluation of the abdominal cramps elicited by rectal distention.

A further data set concerns Salmonella. The settings on record: cited from earlier work.
The conditions of data set [3]: in vivo; cited from earlier work.
For data set [4] the following is noted: 5-HT3 receptor inhibitors; cited from earlier work.
Another data set has as its system gastroenteritis. The settings on record: cited from earlier work.
The next data set is described as follows: drug metabolism pathway. It counts as in vitro ADME. The conditions noted are these: enkephalinase inhibitors.
Data set [5] concerns L.P.S. typhimurium-induced diarrhoea. In words: L.P.S. typhimurium-induced diarrhoea. It counts as in vivo. The conditions noted are these: dexecadotril 0.1 mg/kg alone.
Data set [6] concerns cytochrome P 450 subtypes. Nature of the data set: interaction with cytochrome P 450 subtypes. It counts as in vitro ADME.
The test system of another data set is abdominal cramps. The conditions noted are these: via protection of endogenous opioid peptides; cited from earlier work.
The next data set concerns colonic transit. In words: colonic transit in rodents. It counts as in vivo. The conditions noted are these: enkephalinase inhibitor alone. The text has this:
This effect is blocked by co-administration of ondansetron. Since the transit is already strongly accelerated in gastroenteritis, the combinations of the present invention allow the antisecretory pro-absorptive activity of enkephalinase inhibitors to be exerted for a longer time upon the watery intestinal lumen content, thus resulting in a synergic antidiarrheal effect.

Where [7] appears, read: racecadotril 40 mg/kg p.o. alone.

Turning to `Cc1nccn1CC1CCc2c(c3ccccc3n2C)C1=O` (stereo not drawn) [ondansetron], the antidiarrheal activity entry in data set [1] (ondansetron 0.1 mg/kg p.o. alone) and in data set [1] (ondansetron 1 mg/kg alone) was “inactive” throughout. Besides, in the data set on E. coli toxins, the antisecretory activity entry is given as “not”. The “prevention of pain manifestations” value in data set [2] is recorded as “partially prevent”. The prevention of hypersecretion result with Salmonella is reported as “prevents the hypersecretion”. Besides, the plasma half-life in data set [3] was ~3 h. Also, the metabolism pathway entry in [4] was “oxidation by various cytochrome P 450 subtypes”. In the data set on gastroenteritis, the diarrhoea result is listed as “not significantly affected or even increased; also recorded: fail to affect diarrhoea; also recorded: increase its duration”. In addition, the emesis entry in the data set with gastroenteritis (particularly in children) is recorded as “significantly reduced”.
Consider `CC(=O)SC[C@H](Cc1ccccc1)C(=O)NCC(=O)OCc1ccccc1` [dexecadotril], for which the antidiarrheal activity entry is “an antidiarrheal activity; also recorded: only partially inactive” in data set [1] (dexecadotril 0.1 mg/kg alone) and “an antidiarrheal activity” in [5]. The metabolism pathway entry in the data set “drug metabolism pathway” was “mainly occurs via S-methylation”. Besides, the antisecretory activity result in the data set with E. coli toxins is on record as “active”. The “interaction with cytochrome P 450 subtypes” value in data set [6] is “do not significantly interact”. Further, the “prevention of pain manifestations” value in data set [2] is on record as “partially prevent”.
In the case of `CC(=O)SCC(Cc1ccccc1)C(=O)NCC(=O)OCc1ccccc1` (stereo not drawn) [racecadotril], the antinociceptive effect entry in the data set with abdominal cramps is listed as “partial antinociceptive effect”. Moreover, in data set [1] (setting [7]), the duration of protection is 4 h and the protection against diarrhoea entry is reported as “partial protection”. For the same compound, in the data set “drug metabolism pathway”, the metabolism pathway result is on record as “mainly occurs via S-methylation”. Also, the antisecretory activity result with E. coli toxins is “active”. Also, in data set [6], the “interaction with cytochrome P 450 subtypes” value is listed as “do not significantly interact”. Also, the “prevention of pain manifestations” value in [2] is reported as “partially prevent”. For the same compound, in the data set on colonic transit, the “effect on colonic transit” value is on record as “tend to accelerate colonic transit”. The plasma half-life in data set [3] is ~3 h. For the same compound, the abdominal pain entry in the data set with gastroenteritis is “significantly diminished”.
On to `CN1C2CCCC1CC(NC(=O)c1nn(C)c3ccccc13)C2` (stereo not drawn) [granisetron], for which the plasma half-life in data set [3] is ~3 h. Besides, the metabolism pathway entry in data set [4] was “oxidation by various cytochrome P 450 subtypes”.
